Reference: patent publication US20060083759A1, “Stabilization of the profile of release of active substances from a formulation” (priority 2002, published 2006)

Test: release (dissolution) of clarithromycin from tablets at aging / stability testing
Assay type: physicochemical
Details: for change of tablet dissolution at aging: clarithromycin particle size over 200 μm
Text: By comparing the profiles it has been established that the release rate of a high dosage active substance being poorly soluble in an aqueous medium from a formulation changes with aging, which is even more expressed in the conditions of an accelerated stability assay.
Thus recrystallization is kept at the lowest possible level. In the case of micronizing clarithromycin with large particles also the particle porosity and brittleness are reduced. Micronized clarithromycin can either be already the product of a basic synthesis process or it may be micronized later from clarithromycin with large particles.

**Q.** What does the source list for CC[C@H]1OC(=O)[C@H](C)[C@@H](O[C@H]2C[C@@](C)(OC)[C@@H](O)[C@H](C)O2)[C@H](C)[C@@H](O[C@@H]2O[C@H](C)C[C@H](N(C)C)[C@H]2O)[C@](C)(OC)C[C@@H](C)C(=O)[C@H](C)[C@@H](O)[C@]1(C)O [clarithromycin]?
**A.** changes in the release rate (particle size d(0.9) up to about 30 μm at the most, humidified with a minimum amount of water): minimized; change of tablet dissolution at aging (tablets made by aqueous granulation): noticeably decreases; change of tablet dissolution at aging (tablets made by direct tabletting): noticeably increases
